Legend:
[1] = tested on: tubulin; assay: Tubulin polymerisation assay; type: biochemical; conditions: in vitro, turbidity at 340 nm
Procedure: First, 2 × polymerization buffer was prepared, which consisted of 385 µL Brinkley renaturing buffer 80 (BRB 80), 100 µL glycerol, and 15 µL GTP (100 mM). 50 µL of freshly prepared 2 × polymerization buffer was added to µClear black well plates. Subsequently, 11.1 µL each of a tenfold substance pre-dilution in BRB80 was added. In addition, a combretastatin A-4 positive control was prepared analogously. After rapid addition of 50 µL of tubulin per well, the measurement was started on the plate reader at 340 nm. The plate reader measured at 20 s intervals for at least 120 min until the measurement plateau was reached. For evaluation, OD 340 nm was plotted versus time.

[2] = tested on: 518A2 melanoma cells; assay: Lactate dehydrogenase (LDH) cytotoxicity assay; type: cell-based, human; conditions: 518A2 cells, 10 µM, 24 h
Procedure: 518A2 melanoma cells were seeded in 96-well flat bottom microtiter plates (Sarstedt) with 100 µL per well and a cell density of 0.05 × 10^6 cells per mL. Wells containing medium alone were additionally set for background measurement. Cells were allowed to grow overnight followed by substance treatment with 11.1 µL of tenfold concentrated test compound dilutions and further incubated for 24 h. As a positive control, 10 µL per well of lysis solution (9% Triton-X 100 in Millipore H2O) was added and incubated for 45 min to maintain maximum LDH release, the same amount was added to maximum release background correction wells containing only medium. After centrifugation (4 °C, 150×g, 5 min), 50 µL of the supernatant of each well was transferred on a fresh microtiter plate followed by addition of 50 µL LDH assay buffer (223 mg of 2-p-iodophenyl-3-p-nitrophenyl-5-phenyltetrazolium chloride, 57 mg of N-methyl-phenazonium methyl sulfate, 575 mg of […], 3.2 g of lactic acid in 480 ml 200 mM Tris–Cl, pH 8.0) per well. The plate was incubated in the dark for 10–30 min at room temperature. Then 50 µL stop solution (1 M acetic acid) was added per well and the absorbance was measured at 490 nm. The mean value of background wells with medium alone was subtracted from the negative control and test wells. Additionally, the mean value of volume correction wells was subtracted from maximum LDH release wells. The percentage of LDH release was calculated, with the maximum LDH release set as 100% and the negative control as 0% release. Means and SD were calculated from at least three independent experiments.

[3] = tested on: EA.hy926 endothelial hybrid cells; assay: MTT cell viability assay, EA.hy926; type: cell-based, human
Procedure: (§1) All complexes stable in solution were investigated for their anti-proliferative effect on nine human cancer cell lines, using the MTT-based cell viability assay. Cells were seeded in 96-well microtiter plates (Sarstedt) with a cell density of 0.05 × 10^6 cells per ml and 100 µL per well and incubated for 24 h. A dilution series of test compounds was added to the wells, ranging in twelve steps from 100 µM to 5 nM. As a control, equal amounts of DMSO were added. Treated cells were further incubated for 72 h. Then, 12.5 µL per well of MTT solution (0.05% in phosphate-buffered saline (PBS)) was added, followed by another 2 h of incubation. The plates were centrifuged, the medium was discarded and 25 µL per well of SDS solution in DMSO (10% SDS, 0.6% AcOH in DMSO) was added to dissolve the formazan. The plates were incubated for a further hour. Absorbances at 570 nm and 630 nm were measured using a plate reader (Tecan). Background absorbance (630 nm) was subtracted from the formazan signal (570 nm). The resulting absorbance was directly proportional to the amount of viable cells. The control was normalized to 100% viable cells and viability of cells treated with test compounds was calculated accordingly. IC50 values were calculated based on a sigmoidal fit model using GraphPad Prism. Means and SD were calculated from at least four independent experiments.

[4] = tested on: HT-29 colon carcinoma cells; assay: MTT cell viability assay, HT-29; type: cell-based, human
Procedure: as §1

[5] = tested on: thioredoxin reductase (TrxR); assay: Inhibition of TrxR activity in cell lysates; type: biochemical, human; conditions: lysates of 518A2 melanoma cells
Procedure: For the measurement of TrxR activity, the TrxR Colorimetric Assay Kit (Cayman Chemicals) was used according to manufacturer’s instructions. 1 × 10^8 518A2 melanoma cells were harvested using a cell scraper, homogenized in 5 mL of cold lysis buffer (50 mM K3PO4, 1 mM EDTA, pH 7.4) on ice and centrifuged for 15 min (4 °C, 10,000×g). The protein concentration of the supernatant was determined via Nanodrop. Then, 10 µL Protease Inhibitor Cocktail Plus (Carl Roth) was added to 1 mL of the cell lysate, which was either used for the assay right away or stored at − 80 °C. Prior to use, the assay buffer was warmed to room temperature and the cell lysate, NADPH (Nicotinamide adenine dinucleotide phosphate), ATM (aurothiomalate) and rat liver TrxR enzyme were thawed and kept on ice After determination of the amount of cell lysate for optimum TrxR activity, alle components were pipetted into the wells of a clear 96-well plate and the enzymatic reactions were initiated by addition of NADPH and 5,5′-dithiobis-(2-nitrobenzoic acid (DTNB). Then, the absorbance at 405 nm was measured once every minute using a plate reader (Tecan) at least ten time points. The TrxR activity was measured in the presence and absence of ATM. The difference between the two results renders the DTNB reduction due to TrxR activity. By plotting the average absorbance values as a function of time, the slope of the linear portion of the curve was obtained, and the change of absorbance (ΔA405) per minute could be determined. The values were corrected for unspecific DTNB reduction and the TrxR activity was calculated using the following formula: TrxR activity [µmol/min/mL] = [corrected ΔA/min (sample)/7.92 mM^−1] × [0.2 mL/0.02 mL] × sample dilution. The assay was conducted at 22 °C. All experiments were performed in triplicate and the solvent-treated negative controls were set to 100%.

[6] = tested on: HeLa cervix carcinoma cells; assay: MTT cell viability assay, HeLa; type: cell-based, human; conditions: 72 h
Procedure: as §1

[7] = tested on: 518A2 melanoma cells; assay: Influence on the cell cycle (PI flow cytometry); type: cell-based, human; conditions: 518A2 cells, 24 h, IC50 concentrations (5: approximately twice its IC50)
Procedure: The complexes were investigated for their effect on the cell cycle. Cells were seeded in 6-well plates (Sarstedt) with 3 mL per well and a cell density of 0.05 × 10^6 cells per mL and incubated for 24 h. […] The supernatant of each sample was transferred into a separate tube on ice, the cell monolayer was rinsed once with PBS and the cells were harvested using trypsin, and also transferred into the tube. The cells were pelleted (4 °C, 150 × g, 5 min), re-suspended in 1 mL ice cold EtOH (70%) and stored for at least 1 h at 4 °C. Prior to propidium iodide (PI) staining, the cells were centrifuged (150×g, 5 min), the supernatant was discarded and the cells were layered with 1 mL PBS for 5 min. The cells were centrifuged again and the pellet was re-suspended in 200 µL of PI staining solution (50 µg/mL PI, 1% sodium citrate in PBS) containing 1 µL RNase (10 mg/mL stock solution) and incubated in dark for 30 min at 37 °C. The cell cycle distribution was assessed by flow cytometry (Beckmann Coulter). Means and SD were calculated from at least three independent experiments.

SMILES	Inhibition of tubulin polymerization [1]	LDH release (necrosis) [2]	IC50 ([3]; Homo sapiens, EA.hy 926, 72 h) [nM]	IC50 ([4]; Homo sapiens, HT-29, 72 h) [nM]	Inhibition of TrxR activity [5]	IC50 ([6]; Homo sapiens, HeLa) [nM]	Effect on the cell cycle [7]	IC50 ([3]; 72 h) [nM]	IC50 ([4]; 72 h) [nM]	IC50 [6] [nM]
Sc1ncnc2nc[nH]c12 [6-MP, 6-Mercaptopurine, reference compound]	inhibited tubulin polymerization	no enzyme could be detected	920 ± 40	1400 ± 60	inhibited TrxR	1400 ± 100	accumulated in G1-phase	–	–	–
Nc1nc2nc[nH]c2c(=S)[nH]1 [6-TG, 6-thioguanine, reference compound]	inhibited tubulin polymerization	no enzyme could be detected	250 ± 20	1200 ± 80	inhibited TrxR	190 ± 10	accumulated in G1-phase	–	–	–
CC(=O)OC[C@H]1O[C@@H]([S-])[C@H](OC(C)=O)[C@@H](OC(C)=O)[C@@H]1OC(C)=O.CCP(CC)CC.[Au+] [Auranofin, auranofin]	microtubule-destabilizing agent	no enzyme could be detected	–	–	inhibited TrxR	–	arrested mainly in S-phase	820 ± 40	2000 ± 180	–
OC[C@H]1O[C@@H](n2cnc3c([S][Au][PH](c4ccccc4)(c4ccccc4)c4ccccc4)ncnc32)[C@H](O)[C@@H]1O [Complex 5, (1,7-Dihydro-6H-purine-9-β-D-ribofuranosyl-6-thiolato) (triphenylphosphane) gold(I)]	merely slight inhibition of tubulin polymerization	no enzyme could be detected	–	–	inhibited TrxR even more strongly than 6-MP, 6-TG and auranofin	–	both a G1-phase arrest and an S-phase arrest	340 ± 30	1200 ± 90	190 ± 10
Nc1nc([S][Au][PH](c2ccccc2)(c2ccccc2)c2ccccc2)c2ncn([C@@H]3O[C@H](CO)[C@@H](O)[C@H]3O)c2n1 [Complex 6, (2-Amino-1,7-dihydro-6H-purine-9-β-D-ribofuranosyl-6-thiolato) (triphenylphosphane) gold(I)]	merely slight inhibition of tubulin polymerization	no enzyme could be detected	–	–	inhibited TrxR even more strongly than 6-MP, 6-TG and auranofin	–	–	3800 ± 130	3100 ± 190	2400 ± 140

From paper PMC9653339, “Revisiting the anticancer properties of phosphane(9-ribosylpurine-6-thiolato)gold(I) complexes and their 9H-purine precursors” (Journal of Biological Inorganic Chemistry, 2022)
